The target in one series is BlMINPP (Bifidobacterium longum, UniProt B7GTV0). The series is described as follows: X-ray crystal structure of complex, […] A. As to conditions: non-hydrolysable substrate analogue in active site, two orientations; co-crystallised with 1 mM InsS6. The arrangement: gene Blon_0263; N-terminal His6 tag cleaved (WT: pOPINF, 3C protease; variants: pET28a, thrombin); E. coli Rosetta(DE3) pLysS. The class given is binding.

For a further series, the target named is T1, EcAppA (Escherichia coli, UniProt P07102).
T1 construct: gene appA; pOPINB, N-terminal cleavable His tag, cytoplasmic expression in E. coli Shuffle Express T7; Ni-NTA and gel filtration
T1 sequence (P07102 23-432): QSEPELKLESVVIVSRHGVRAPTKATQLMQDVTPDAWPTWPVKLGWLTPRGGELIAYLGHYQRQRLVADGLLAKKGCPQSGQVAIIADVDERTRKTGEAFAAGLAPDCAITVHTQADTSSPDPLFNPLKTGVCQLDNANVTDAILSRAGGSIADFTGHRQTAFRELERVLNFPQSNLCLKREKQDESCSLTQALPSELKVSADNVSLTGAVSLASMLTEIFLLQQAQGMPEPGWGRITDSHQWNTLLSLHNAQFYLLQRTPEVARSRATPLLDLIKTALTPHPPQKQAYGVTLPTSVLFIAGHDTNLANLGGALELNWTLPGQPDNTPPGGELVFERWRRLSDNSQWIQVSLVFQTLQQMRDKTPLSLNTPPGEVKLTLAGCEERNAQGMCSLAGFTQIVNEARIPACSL
The series is described as follows: HPLC of inositol polyphosphate products. As to conditions: pH 5.5, 200 mM sodium acetate, 150 mM NaCl; 1 mM substrate, 25 nM enzyme. The class given is biochemical.

Another series deals with T2, BtMINPP (Bacteroides thetaiotaomicron, UniProt Q89YI8).
T2 construct: gene BT_4744
T2 sequence (Q89YI8 21-425): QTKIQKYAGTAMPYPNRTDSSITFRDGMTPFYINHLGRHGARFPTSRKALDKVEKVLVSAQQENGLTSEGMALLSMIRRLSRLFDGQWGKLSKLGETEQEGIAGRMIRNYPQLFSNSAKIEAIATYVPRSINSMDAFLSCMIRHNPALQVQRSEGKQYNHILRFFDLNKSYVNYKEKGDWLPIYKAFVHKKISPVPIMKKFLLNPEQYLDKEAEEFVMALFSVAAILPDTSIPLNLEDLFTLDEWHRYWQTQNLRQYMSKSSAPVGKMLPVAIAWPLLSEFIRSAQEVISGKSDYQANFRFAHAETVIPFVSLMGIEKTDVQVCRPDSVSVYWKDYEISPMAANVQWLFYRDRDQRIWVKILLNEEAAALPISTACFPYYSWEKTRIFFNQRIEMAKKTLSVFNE
The series is described as follows: HPLC of inositol polyphosphate products. The class given is biochemical. As to conditions: pH 5.5, 200 mM sodium acetate, 150 mM NaCl; 1 mM substrate, 25 nM enzyme.

The target of another series is T3, AnPhyA (Aspergillus niger, UniProt P34752).
T3 construct: gene phyA; codon-optimised, N-terminal 3C site, C-terminal His6; secreted from Pichia pastoris KM71H; Ni-NTA purified
T3 sequence (P34752 24-467): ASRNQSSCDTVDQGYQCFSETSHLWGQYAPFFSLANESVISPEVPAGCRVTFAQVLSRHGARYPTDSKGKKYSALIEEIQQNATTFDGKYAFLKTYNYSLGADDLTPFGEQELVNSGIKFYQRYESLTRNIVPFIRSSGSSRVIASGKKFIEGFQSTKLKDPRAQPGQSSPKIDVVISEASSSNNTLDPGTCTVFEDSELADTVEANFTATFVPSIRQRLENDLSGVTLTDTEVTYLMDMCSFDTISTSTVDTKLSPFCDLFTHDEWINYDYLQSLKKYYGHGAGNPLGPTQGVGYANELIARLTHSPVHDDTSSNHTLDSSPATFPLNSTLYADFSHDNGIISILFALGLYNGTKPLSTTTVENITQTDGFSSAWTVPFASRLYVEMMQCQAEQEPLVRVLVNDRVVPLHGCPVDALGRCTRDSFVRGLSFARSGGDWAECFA
The series is described as follows: HPLC of inositol polyphosphate products. As to conditions: pH 5.5, 200 mM sodium acetate, 150 mM NaCl; 1 mM substrate, 25 nM enzyme. The class given is biochemical.

Substrate in the series “purified protein”: O=P(O)(O)O[C@H]1[C@H](OP(=O)(O)O)[C@@H](OP(=O)(O)O)[C@H](OP(=O)(O)O)[C@@H](OP(=O)(O)O)[C@H]1OP(=O)(O)O
Description: purified protein. The following applies: pH 5.5, 200 mM sodium acetate, 0.15 M NaCl, room temperature, 25 nM enzyme.

Turning to `O=S(=O)(O)O[C@H]1[C@H](OS(=O)(=O)O)[C@@H](OS(=O)(=O)O)[C@H](OS(=O)(=O)O)[C@@H](OS(=O)(=O)O)[C@H]1OS(=O)(=O)O` [InsS6], the “X-ray crystal structure of complex, 1.84 A” value on BlMINPP is recorded as “A crystal of the purified recombinant enzyme grown in the presence of an excess InsS6”.
`O=P(O)(O)O[C@H]1[C@H](OP(=O)(O)O)[C@@H](OP(=O)(O)O)[C@H](OP(=O)(O)O)[C@@H](OP(=O)(O)O)[C@H]1OP(=O)(O)O` [InsP6, myo-Inositol 1,2,3,4,5,6-hexakisphosphate]: the “HPLC of inositol polyphosphate products” value is recorded as “E.coli AppA, which is accepted to possess high positional specificity” at EcAppA; “HPLC chromatograms of the products of InsP6 hydrolysis by BlMINPP, BtMINPP” on BtMINPP; “products of InsP6 hydrolysis by BlMINPP, BtMINPP, A. niger PhyA (AnPhyA)” on AnPhyA.

B1: BlMINPP (Bifidobacterium longum subsp. infantis ATCC 15697 = JCM 1222 = DSM 20088) (protein)
chain: MEADGRYYSSKQPYVAPNDATASSYSKAPKGYGPIYTESMARHGSRGLSSYKYDALLMRMAETAARDGGFKSEAIKAEFVKNLSGITAANVENGYGMLTGQGAQQHYGIGERAYQRNRSLFDQAAADGGTIAYQSSGEARATESGENFEKGFNEASGGRLIGNVSAPTNPADSGNGKDFQKNPDTLYFHKVQNPDGTSKVPGTKAYDIANNYQNFVANDATIAGAEKTIGDNVDVKRASHDLLSQIFTEEFLAKLENGEYKWYNTTDGTKKGGKNCAPGADASKDPDACGEVSKKIKSEYDAAMDLYNLYIIAADMHNENTGDHTFAFDQYFQGAYADDARMFAWALDAEDFYEKGPSYAGQNETYSIAQPLLDDFLNTIDARVNGGSTVATFRFAHAETMMPFAALLGLPGSTQQAPASTTDVYTYGNNEWRGESVTPMAANVQWDVYARKGEDPATGQRYTPIVRMLYNENEVPFRSECTPVADGSTWYKLTELKSCLAADHKTLGQDARI
One may read the Km as the concentration of substrate that gives half-maximal velocity. Broadly, the kcat is the maximal rate divided by the concentration of active sites. Usually kcat/Km stands for the second-order rate constant that governs catalysis at low substrate concentration. For the molecule B1, in “purified protein”, the Km is 54.5 ± 8.4 µM, the kcat was 46.8 s⁻¹ and the kcat/Km came to 900000 M⁻¹ s⁻¹.

Values taken from paper PMC7762957, “Snapshots during the catalytic cycle of a histidine acid phytase reveal an induced-fit structural mechanism” (The Journal of Biological Chemistry, 2020).
